In article PMC9879403, “Oncolytic strategy using new bifunctional HDACs/BRD4 inhibitors against virus-associated lymphomas” (PLOS Pathogens, 2023):
Where two headings read alike, the source gives them in different places.

How the values were obtained:
JSC-1 = test: WST-1 cytotoxicity assay, JSC-1 (KSHV+ PEL); format: cell-based; conditions: 72 h
Text: (§1) Fig 2 Identification of newly synthesized dual inhibitors with anti-PEL activities. (A) The binding mode of (+)-JQ1 with BRD4^BD1 (PDB: 3MXF). BRD4^BD1 is shown as hot pink cartoon with gray surface. Asn140 in BRD4^BD1 is shown as sticks and colored in following pattern: atom C hot pink, atom N dark blue, and atom O yellow. (+)-JQ1 is shown as sticks and colored in following patten: atom C hot pink, atom N dark blue, atom O yellow, atom S golden, and atom Cl green. The solvent exposed region (SEG) of (+)-JQ1 are indicated with white arrow. (B) The binding modes of SAHA and entinostat with HDAC2 (PDB: 3MAX). HDAC2 is shown as blue cartoon with gray surface. Asp181 and His183 in HDAC2 are shown as sticks and colored in following pattern: atom C blue, atom N dark blue, and atom O yellow. The catalytic zinc ion in the active site of HDAC2 is shown as black sphere. SAHA is shown as sticks and colored in following pattern: atom C green, atom N dark blue, and atom O yellow. Entinostat is shown as sticks and colored in following pattern: atom C hot pink, atom N dark blue, and atom O yellow. The SEG of SAHA or entinostat is indicated with white arrow. Hydrogen bonds (H-bonds) are presented by red dash lines. (C) The HDACs/BRD4 dual inhibitors 002-011 were designed by fusing the key pharmacophores of (+)-JQ1 (pink) and HDAC inhibitors (blue), SAHA or entinostat, via various chemical linkers (green). (D) Anti-PEL activities of the new compounds. Five KSHV positive and two KSHV negative lymphoma cell lines were treated with indicated concentrations of these compounds for 72 h. Then the cytotoxicity was determined using the WST-1 assay. (+)-JQ1, SAHA and entinostat were used for the comparisons as single inhibitors. The CC50 for each compound was calculated using GraphPad Prism 5.0 software. Error bars represent S.D. for 3 independent experiments.
(§2) Fig 4 Identification of anti-PEL activities for compound 009 stereoisomers. (A) The chemical structures of anti-HDACs/BRD4 bifunctional molecules 009P1 and 009P2, as well as anti-HDACs or anti-BRD4 mono-functional molecules 009N1, 009N2, 009N3, and 009N4. (B-C) Four KSHV+ PEL cell lines were treated with indicated concentrations of 009P1, 009P2 or 009N1-N4 for 72 h, then the cytotoxicity was determined using the WST-1 assay. (D-I) BCBL-1 cells were treated with these compounds at the respective 2× CC50 for 24 h, then cell cycle (D-F) and apoptosis (G-I) were measured by flow cytometry analysis. Error bars represent S.D. for 3 independent experiments, ** = p<0.01 (vs vehicle control).
(§3) The cell viability following treatment with compounds was assessed by the WST-1 assay (Roche, Indianapolis, Indiana, USA) according to the manufacturer’s protocol as described previously. The absorbance signal was measured using a microplate reader (Biotek Synergy 2). The 50% cytotoxic concentration (CC50) for each compound was calculated from these dose-response curves using the software GraphPad Prism v5.0. Data were normalized as the fold change compared to the DMSO control.

KSHV [1] = test: Viral DNA levels in PEL cells by qPCR; format: cell-based
BCBL-1 cells [2] = test: RNA-Sequencing of compound-treated vs vehicle-treated cells; format: cell-based, human
Description: RNA-Sequencing (RNA-Seq) of triplicate samples was performed by BGI Americas Corporation using their unique DNBSEQ sequencing technology. The completed RNA-Sequencing data was submitted to NCBI Sequence Read Archive (SRA# # PRJNA813422). Raw sequencing reads were analyzed using the RSEM software (version 1.3.0; human GRCh38 genome sequence and annotation) and gene expression was quantified as previously described. The EBSeq software was utilized to call differentially expressed genes that were statistically significant using a false discovery rate (FDR) less than 0.05. Differentially expressed genes between compounds- and vehicle-treated PEL cells were used as input for the GO enrichment analyses.

HUVEC = test: WST-1 cytotoxicity on primary cells HUVEC; format: cell-based, human
Description: as §3
Supplementary file ppat.1011089.s006.tif: S5 Fig Cytotoxicity of tested compounds on HUVEC. The primary cells HUVEC were treated with indicated concentrations of compounds for 72 h, then cell viability was assessed using the WST-1 assay. The CC50 for each compound was calculated from the dose-response curves using Graphpad Prism 5.0 software. Data was normalized as the fold change compared to the DMSO control. (TIF) Click here for additional data file.

BCP-1 = test: WST-1 cytotoxicity assay, BCP-1 (KSHV+ PEL); format: cell-based; conditions: BCP-1, 72 h
Text: as §1, §2, §3

BCBL-1 = test: WST-1 cytotoxicity assay, BCBL-1 (KSHV+ PEL); format: cell-based; conditions: BCBL1, 72 h
Text: as §1, §2, §3

KSHV [3] = format: cell-based
BCBL-1 cells [4] = test: PEL xenograft model (BCBL-1 cells i.p.); conditions: 20 mg/kg
Description: (A) Plasma concentrations of (+)-JQ1, SAHA, or 009P1 after a single administration of 50 mg per kg body (i.p. injection) were presented as mean ± SD (n = 3 mice per time point). (B-E) NOD/SCID mice were injected i.p. with BCBL-1 cells. 72 h later, the compounds or vehicle were administered i.p. as described in the Methods, and weights were recorded weekly. At the end of the treatment period, the splenic tissues were collected from the vehicle or compound treated mice, compared and processed with the H&E and IHC staining. (F) Plasma concentrations of 009P1 after a single administration of 50 mg per kg body (oral gavage) were presented as mean ± SD (n = 3 mice per time point). (G-I) NOD/SCID mice were injected i.p. with BCBL-1 cells. 72 h later, the compounds or vehicle were administered orally as described in the Methods, and weights were recorded weekly.
In all NOD/SCID mice, 6–8-week-old, male (Jackson Laboratory, Ellsworth, Maine, USA), 1 × 10^7 BCBL-1 cells in 200 μL RMPI-1640 without FBS were injected intraperitoneally and then mice were randomized into treatment groups of 6 mice as described previously. The tested compounds or vehicle was administered initially at 72 h after BCBL-1 injections, and continued once daily, 2 days per week for 3 weeks. Weights were recorded weekly as a surrogate measure of tumor progression. At the end of experiment, the spleens of mice were excised for immunoblots and immunohistochemical analyses.
Formalin-fixed, paraffin-embedded tissues were microtome-sectioned to a thickness of 4 μm and placed on electromagnetically charged slides. Immunohistochemistry was performed as described previously, and the c-Myc and H3K9Ac antibodies were purchased from Abcam. Images were collected using an Olympus BX61 microscope equipped with a high resolution DP72 camera and CellSense image capture software.

BCBL-1 cells [5] = test: Cell death regulatory proteins by Western blot; format: cell-based; conditions: 50 nM, 48 h
BRD4 = BRD4 signaling by Western blot (c-Myc expression); format: cell-based; conditions: BCBL-1 cells, 48 h, Western blot
HDACs = HDACs signaling by Western blot (H3K9Ac, H4K9Ac, Acetyl-tubulin); format: cell-based; conditions: BCBL-1 cells, 48 h, Western blot
BC-1 = test: WST-1 cytotoxicity assay, BC-1 (KSHV+ PEL); format: cell-based; conditions: Homo sapiens, BC1, 72 h
Text: as §1, §2, §3

[6] = WST-1 cytotoxicity assay, BL-41 (KSHV negative lymphoma); format: cell-based; conditions: human
Text: as §1, §3

BJAB.219 = test: WST-1 cytotoxicity assay, BJAB.219 (KSHV-infected lymphoma); format: cell-based; conditions: 72 h, read-out: KSHV-infected lymphomas CC50, BJAB.219
Text: as §1
BCBL-1 and iSLK.219 cells were kindly provided by Dr. Pinghui Feng (University of Southern California). BL-41, BJAB, BCP-1, BC-1, BC-3, JSC-1, HUVEC cells were purchased from American Type Culture Collection (ATCC), and cultured as recommended by the manufacturer. For making BJAB.219 cells, BJAB cells were infected with rKSHV.219 stock by spinoculation as previously reported by centrifugation at 1500×g for 60 min [31]. Then, puromycin (10 μg/ml) was added into the medium at 72 h post-infection and the medium containing puromycin was replaced twice a week. After 6-week high concentration of puromycin selection, BJAB.219 cells were then cultured in the medium with 0.5 μg/ml puromycin.
The cell viability following treatment with compounds was assessed by the WST-1 assay (Roche, Indianapolis, Indiana, USA) according to the manufacturer’s protocol as described previously. The absorbance signal was measured using a microplate reader (Biotek Synergy 2). […]

KSHV [7] = format: cell-based, human
[8] = WST-1 cytotoxicity assay, BJAB (KSHV negative lymphoma); format: cell-based; conditions: human
Text: as §1, §3

[9] = gene expression, treated vs vehicle BCBL-1 cells

Cc1sc2c(c1C)C(c1ccc(Cl)cc1)=N[C@@H](CC(=O)O[C@@H](C)c1ccc(C(=O)Nc3ccccc3N)cc1)c1nnc(C)n1-2 [009P2, (S)-1-(4-((2-aminophenyl)carbamoyl)phenyl)ethyl 2-((S)-4-(4-chlorophenyl)-2,3,9-trimethyl-6H-thieno[3,2-f][1,2,4]triazolo[4,3-a][1,4]diazepin-6-yl)acetate]
CC50 (JSC-1; read-out: CC50, JSC-1): 110 nM | Viral DNA levels (KSHV [1]): slightly increased | Genes differentially expressed between 009P1- and 009P2-treated PEL cells (BCBL-1 cells [2]; BCBL-1, ≥ 2 fold-change and FDR < 0.05): 715 genes | Ratio, ARC (BCBL-1 cells [2]; [9]): 17.91 | Ratio, ARRDC3 (BCBL-1 cells [2]; [9]): 41.32 | Ratio, ATF3 (BCBL-1 cells [2]; [9]): 22.98 | Ratio, CCDC169-SOHLH2 (BCBL-1 cells [2]; [9]): 0.1511 | Ratio, CD28 (BCBL-1 cells [2]; [9]): 0.1264 | Ratio, CD44 (BCBL-1 cells [2]; [9]): 0.1695 | Ratio, CFAP58 (BCBL-1 cells [2]; [9]): 0.2474 | Ratio, CHAC1 (BCBL-1 cells [2]; [9]): 9.244 | Ratio, CSF1R (BCBL-1 cells [2]; [9]): 42.35 | Ratio, DDIT3 (BCBL-1 cells [2]; [9]): 16.53 | Ratio, DDIT4 (BCBL-1 cells [2]; [9]): 24.97 | Ratio, FOS (BCBL-1 cells [2]; [9]): 77 | Ratio, IFNG (BCBL-1 cells [2]; [9]): 0.1337 | Ratio, IRF7 (BCBL-1 cells [2]; [9]): 28.87 | Ratio, LGALS9B (BCBL-1 cells [2]; [9]): 0.03508 | Ratio, MCM5 (BCBL-1 cells [2]; [9]): 0.1 | Ratio, PRKCB (BCBL-1 cells [2]; [9]): 0.03195 | Ratio, RP11-707M3.3 (BCBL-1 cells [2]; [9]): 0.2332 | Ratio, SOCS3 (BCBL-1 cells [2]; [9]): 41.85 | Ratio, SPINT1 (BCBL-1 cells [2]; [9]): 0.1311 | Cytotoxicity in primary cells HUVEC (HUVEC): much less cytotoxicity | CC50 (BCP-1; read-out: CC50, BCP-1): 28 nM | CC50 (BCBL-1; read-out: CC50, BCBL-1): 3.3 nM | Expression of viral genes (LANA, RTA, ORF26) (KSHV [3]): significantly increased | PEL tumor progression (ascites formation, spleen enlargement) (BCBL-1 cells [4]; i.p.): dramatically suppressed PEL tumor progression | Tumor infiltration into the spleen (H&E) (BCBL-1 cells [4]; i.p.): only diffuse small tumor nodules | Visible toxicity in mice (abnormal weight loss) (BCBL-1 cells [4]; i.p.): not observed | Tumor burden in mice (ascites formation, spleen enlargement) (BCBL-1 cells [4]; oral administration): effectively repressed tumor burden | Expression of p-RB, cleaved-caspase 3 and cleaved-PARP (BCBL-1 cells [5]): strongly affected | c-Myc expression (BRD4): decreased | H3K9Ac, H4K9Ac and Acetyl-tubulin protein levels (HDACs): increased | CC50 (BC-1; read-out: CC50, BC-1): 5.5 nM

Cc1sc2c(c1C)C(c1ccc(Cl)cc1)=N[C@@H](CC(=O)OC(C)c1ccc(C(=O)Nc3ccccc3N)cc1)c1nnc(C)n1-2 (stereo partly drawn) [compound 009, 1-(4-((2-aminophenyl)carbamoyl)phenyl)ethyl 2-((S)-4-(4-chlorophenyl)-2,3,9-trimethyl-6H-thieno[3,2-f][1,2,4]triazolo[4,3-a][1,4]diazepin-6-yl)acetate]
CC50 (JSC-1; read-out: KSHV-infected lymphomas CC50, JSC-1): 84 nM | CC50 (BCP-1; read-out: KSHV-infected lymphomas CC50, BCP-1): 120 nM | CC50 at 72 h [6]: 3370 nM | CC50 (BCBL-1; read-out: KSHV-infected lymphomas CC50, BCBL-1): 20 nM | CC50 (BJAB.219): 230 nM | Expression of lytic genes RTA, PF and ORF26 (KSHV [7]): elevated | CC50 at 72 h [8]: 1320 nM | CC50 (BC-1; read-out: KSHV-infected lymphomas CC50, BC-1): 96 nM
